Test results as given in patent US9795644B2, “Reduction of in vitro genotoxicity of pollen extracts by removal of flavonoids” (STALLERGENES, priority 2009, dated 2017).

Tests used:
[1] = incubation at 37° C. under MLA/TK conditions, deglycosylation followed by reverse phase HPLC; assay type: physicochemical; details: 24 h at 37° C., in presence of grass pollen proteins; from peak areas
Procedure: Grass pollen flavonoids were first identified by reverse phase HPLC, according to their hydrophobicity. Reverse phase HPLC was performed on a Atlantis dC18 column, 4.6×250 mm, 5 μm, Waters, Milford, Mass., USA; with a gradient elution: 0.1% formic acid qsp water to 0.1% formic acid qsp acetonitrile in 30 min; flow rate: 1 mL/min; run time: 45 min; detection wavelength: 354 or 254 nm; injection volume 50 μL. Importantly, grass pollen extracts were diluted 5 times in methanol before analysis in order to solubilize both flavonoid glycosides and flavonoid aglycones, the latter being hardly soluble in water.
Analysis of samples was performed using the HPLC method described above for the detection of flavonoids.
As (a) the sum of all peaks areas was rather well conserved and (b) the decrease of a flavonoid diglucoside-corresponding peak was related to the increase or appearance of flavonoid monoglycoside and/or aglycone-corresponding peak(s), it could be considered that the ratio between the two peaks areas is equivalent to the molar ratio of the corresponding flavonoids. On this basis, the decrease in quercetin-diglucoside leaded to an equal increase in molecules of quercetin-monoglucoside and in molecules of quercetin aglycone.

[2] = tested on: mouse lymphoma thymidine kinase gene mutation; experiment: MLA/TK test of quercetin by Meltz and MacGregor (4-h short term protocol), modelled by equation (2); assay type: cell-based; details: quercetin 0.83-0.86 μg/mL; from data of Meltz and MacGregor
Procedure: To our knowledge, quercetin is the only flavonoid aglycone that was studied in the MLA/TK test, namely in a work by Meltz and MacGregor who used a 4-h short term protocol (Mutat. Res. 1981; 88: 317-324).
The induction ratios that should result from those amounts was deduced from the data of Meltz and MacGregor. Such deduced induction ratios were then compared to the induction ratio actually observed.
The lowest concentration of quercetin tested by Meltz and MacGregor was 10 μg/mL. Therefore, to determine the ratio that should be obtained with the lowest concentration of 0.864 μg/mL or below, the relationship between (a) the concentrations of quercetin tested by Meltz and MacGregor and (b) the corresponding induction ratios they observed was mathematically modelled. Since those ratios started reaching a plateau at the first concentration tested, we choose to use a logarithmic function for such a modelization. Given that the ratio is necessarily of 1 for 0 μg/mL of mutagen (control), the logarithmic function will be of the form: y=a·ln(x+1)+1 (1)
Using the ratios obtained by Meltz and MacGregor for 10, 20 and 30 μg/mL of quercetin allows a mathematical modelization by the following equation with an excellent correlation coefficient (r=0.99): y=3.0822×ln(x+1)+1 (2).

[3] = other in vitro genotoxic tests; cited from earlier work

Structure (SMILES)	share deglycosylated into quercetin (aglycone) [1]	induction ratio interpolated with equation (2) [2]	genotoxicity rank among flavonoid aglycones [3]
O=c1c(O[C@@H]2O[C@H](CO)[C@@H](O)[C@H](O)[C@H]2O)c(-c2ccc(O[C@@H]3O[C@H](CO)[C@@H](O)[C@H](O)[C@H]3O)c(O)c2)oc2cc(O)cc(O)c12 [quercetin-diglucoside, quercetin-3,4′-diglucoside]	~20%	–	–
O=c1c(O)c(-c2ccc(O)c(O)c2)oc2cc(O)cc(O)c12 [quercetin]	–	2.9	the most genotoxic flavonoid aglycone
